Results reported in ChEMBL document CHEMBL1201862, “PubChem BioAssay data set” (2004).
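Protocol summary: plate cells (96-well), add compound at 5 concentrations, incubate 48 h, interpolate endpoints linearly. GI50 is the concentration that inhibits growth by half.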 Activity calls are given as the source filed them. No stated cut-off is given here; in the data, active = GI50 up to about 1.1 µM and inactive = higher.

What was measured:
Experiment in all cases: NCI-60 cell line screen, 48 h
[1] = test system: K562
[2] = test system: BT-549
[3] = test system: TK-10
[4] = test system: M14
[5] = test system: DU-145
[6] = test system: HCT-116
[7] = test system: ACHN
[8] = test system: IGROV-1
[9] = test system: CCRF-CEM
[10] = test system: MDA-MB-435
[11] = test system: Malme-3M
[12] = test system: MDA-N
[13] = test system: NCI-H226
[14] = test system: A498
[15] = test system: OVCAR-5
[16] = test system: SF-539
[17] = test system: SF-295
[18] = test system: EKVX
[19] = test system: OVCAR-4
[20] = test system: NCI/ADR-RES

Compound	GI50 [1]	GI50 [2]	GI50 [3]	GI50 [4]	GI50 [5]	GI50 [6]	GI50 [7]	GI50 [8]	GI50 [9]	GI50 [10]	GI50 [11]	GI50 [12]	GI50 [13]	GI50 [14]	GI50 [15]	GI50 [16]	GI50 [17]	GI50 [18]	GI50 [19]	GI50 [20]
NC1=Nc2ccccc2Sc2nnc(-c3ccc(Cl)cc3)n21	12.2 µM (inactive)	> 100 µM (inactive)	40.8 µM (inactive)	> 100 µM (inactive)	49.2 µM (inactive)	9.53 µM (inactive)	47 µM (inactive)	48.8 µM (inactive)	14.8 µM (inactive)	> 100 µM (inactive)	> 100 µM (inactive)	> 100 µM (inactive)	> 100 µM (inactive)	20.4 µM (inactive)	> 100 µM (inactive)	26.2 µM (inactive)	29.6 µM (inactive)	75.3 µM (inactive)	> 100 µM (inactive)	33.2 µM (inactive)
O=[N+]([O-])c1ccc(C2=Nn3c(nnc3-c3ccc(Cl)cc3)SC2)o1	2.16 µM (inactive)	11.4 µM (inactive)	14.9 µM (inactive)	5.46 µM (inactive)	19.2 µM (inactive)	5.71 µM (inactive)	13.9 µM (inactive)	6 µM (inactive)	2.65 µM (inactive)	2.08 µM (inactive)	6.46 µM (inactive)	6.17 µM (inactive)	16.4 µM (inactive)	16.9 µM (inactive)	18.3 µM (inactive)	8.81 µM (inactive)	10.9 µM (inactive)	10.7 µM (inactive)	3.11 µM (inactive)	14.3 µM (inactive)
COc1c(O)ccc2c1CN1CCc3cc4c(cc3C1C2)OCO4 (stereo not drawn)	20 µM (inactive)	28.2 µM (inactive)	28.9 µM (inactive)	34.8 µM (inactive)	21.8 µM (inactive)	24 µM (inactive)	16.3 µM (inactive)	28.6 µM (inactive)	30.8 µM (inactive)	21.8 µM (inactive)	33.9 µM (inactive)	26.4 µM (inactive)	44.5 µM (inactive)	20.8 µM (inactive)	> 65.5 µM (inactive)	40 µM (inactive)	29.7 µM (inactive)	47.8 µM (inactive)	23.1 µM (inactive)	20.9 µM (inactive)
C[N+]12C=CC=C1C(N1CCCC1)c1scc(-c3ccc(Br)cc3)c12 (stereo not drawn)	6.7 µM (inactive)	1.79 µM (inactive)	91.2 µM (inactive)	27.7 µM (inactive)	33.7 µM (inactive)	30.9 µM (inactive)	> 88.9 µM (inactive)	4.58 µM (inactive)	18.2 µM (inactive)	24 µM (inactive)	9.4 µM (inactive)	27 µM (inactive)	3.15 µM (inactive)	47.2 µM (inactive)	42.1 µM (inactive)	4 µM (inactive)	6.4 µM (inactive)	20.1 µM (inactive)	35.3 µM (inactive)	> 100 µM (inactive)
CCOC(=O)CC(=O)NC1CC2CCC1(C)C2(C)C (stereo not drawn)	> 100 µM (inactive)	> 100 µM (inactive)	> 100 µM (inactive)	> 100 µM (inactive)	> 100 µM (inactive)	> 100 µM (inactive)	> 100 µM (inactive)	> 100 µM (inactive)	> 100 µM (inactive)	> 100 µM (inactive)	> 100 µM (inactive)	> 100 µM (inactive)	> 100 µM (inactive)	> 100 µM (inactive)	> 100 µM (inactive)	> 100 µM (inactive)	> 100 µM (inactive)	> 100 µM (inactive)	> 100 µM (inactive)	> 100 µM (inactive)
COc1ccc(-c2c3c(cc4cc5c(cc24)OCO5)C(=O)OC3)cc1OC	0.69 µM (active)	0.51 µM (active)	42.2 µM (inactive)	0.305 µM (active)	2.7 µM (inactive)	0.466 µM (active)	1.37 µM (inactive)	0.336 µM (active)	4.06 µM (inactive)	2.43 µM (inactive)	0.51 µM (active)	2.01 µM (inactive)	0.34 µM (active)	20.4 µM (inactive)	9.55 µM (inactive)	3.5 µM (inactive)	0.239 µM (active)	1.96 µM (inactive)	2.47 µM (inactive)	0.132 µM (active)
CC(C)Cc1cc2c(cc1O)CCC1C2CC[C@@]2(C)C1CC[C@@H]2O (stereo partly drawn)	3.83 µM (inactive)	2.96 µM (inactive)	9.48 µM (inactive)	7.87 µM (inactive)	9.2 µM (inactive)	6.05 µM (inactive)	6.95 µM (inactive)	15.1 µM (inactive)	7.91 µM (inactive)	11.6 µM (inactive)	17.7 µM (inactive)	7.05 µM (inactive)	4.79 µM (inactive)	18.3 µM (inactive)	16.1 µM (inactive)	19.5 µM (inactive)	4.09 µM (inactive)	8.69 µM (inactive)	8.97 µM (inactive)	6.14 µM (inactive)
CCOC(=O)C(Cc1ccc(O)cc1)Nc1nc(=O)c2c(=O)oc(Cl)cc2o1 (stereo not drawn)	3.06 µM (inactive)	2.47 µM (inactive)	6.58 µM (inactive)	4.15 µM (inactive)	17.3 µM (inactive)	6.38 µM (inactive)	12.2 µM (inactive)	5.09 µM (inactive)	2.7 µM (inactive)	4.52 µM (inactive)	3.17 µM (inactive)	2.85 µM (inactive)	19.7 µM (inactive)	18.2 µM (inactive)	17.8 µM (inactive)	5.79 µM (inactive)	16 µM (inactive)	12.4 µM (inactive)	12.6 µM (inactive)	20.9 µM (inactive)
COc1cc(CNC(=O)CCCCCCCCCCSSCCCCCCCCCCC(=O)NCc2ccc(O)c(OC)c2)ccc1O	> 10 µM (inactive)	> 10 µM (inactive)	> 10 µM (inactive)	> 10 µM (inactive)	> 10 µM (inactive)	> 10 µM (inactive)	> 10 µM (inactive)	> 10 µM (inactive)	> 10 µM (inactive)	> 10 µM (inactive)	> 10 µM (inactive)	> 10 µM (inactive)	> 10 µM (inactive)	> 10 µM (inactive)	> 10 µM (inactive)	> 10 µM (inactive)	> 10 µM (inactive)	> 10 µM (inactive)	> 10 µM (inactive)	> 10 µM (inactive)
COc1cc2oc(=O)cc(C)c2cc1O	> 100 µM (inactive)	> 100 µM (inactive)	> 100 µM (inactive)	> 100 µM (inactive)	> 100 µM (inactive)	> 100 µM (inactive)	> 100 µM (inactive)	> 100 µM (inactive)	> 100 µM (inactive)	> 100 µM (inactive)	> 100 µM (inactive)	> 100 µM (inactive)	> 100 µM (inactive)	> 100 µM (inactive)	> 100 µM (inactive)	> 100 µM (inactive)	> 100 µM (inactive)	> 100 µM (inactive)	> 100 µM (inactive)	> 100 µM (inactive)
CC1=C2C(=O)c3ccccc3C(=O)[C@H]2[C@H]2CCO[C@H]2O1	27.4 µM (inactive)	13.3 µM (inactive)	28.5 µM (inactive)	20.6 µM (inactive)	22.3 µM (inactive)	23.8 µM (inactive)	20.9 µM (inactive)	14.2 µM (inactive)	25.4 µM (inactive)	20.7 µM (inactive)	19.1 µM (inactive)	19.2 µM (inactive)	71 µM (inactive)	> 100 µM (inactive)	23.7 µM (inactive)	22.1 µM (inactive)	23 µM (inactive)	30.5 µM (inactive)	19.5 µM (inactive)	27 µM (inactive)
O=C(CN1CCCCC1)CC(O)(C(F)(F)F)C(F)(F)F	> 100 µM (inactive)	> 100 µM (inactive)	> 100 µM (inactive)	> 100 µM (inactive)	> 100 µM (inactive)	> 100 µM (inactive)	> 100 µM (inactive)	> 100 µM (inactive)	> 100 µM (inactive)	> 100 µM (inactive)	> 100 µM (inactive)	> 100 µM (inactive)	> 100 µM (inactive)	> 100 µM (inactive)	> 100 µM (inactive)	> 100 µM (inactive)	> 100 µM (inactive)	> 100 µM (inactive)	> 100 µM (inactive)	> 100 µM (inactive)
O=C1c2cccnc2S(=O)(=O)N1c1ccc(Oc2ccccc2)cc1	> 100 µM (inactive)	> 100 µM (inactive)		> 100 µM (inactive)	> 100 µM (inactive)	> 100 µM (inactive)	> 100 µM (inactive)	> 100 µM (inactive)	90.4 µM (inactive)	> 100 µM (inactive)	> 100 µM (inactive)	> 100 µM (inactive)	> 100 µM (inactive)	> 100 µM (inactive)	> 100 µM (inactive)	> 100 µM (inactive)	> 100 µM (inactive)	> 100 µM (inactive)	> 100 µM (inactive)	> 100 µM (inactive)
COc1ccc(OC)c(CNc2ccc(C(=O)O)cc2)c1	> 100 µM (inactive)	> 100 µM (inactive)	> 100 µM (inactive)	> 100 µM (inactive)	> 100 µM (inactive)	> 100 µM (inactive)	> 100 µM (inactive)	> 100 µM (inactive)	> 100 µM (inactive)	> 100 µM (inactive)	> 100 µM (inactive)	> 100 µM (inactive)	> 100 µM (inactive)	> 100 µM (inactive)	> 100 µM (inactive)	> 100 µM (inactive)		> 100 µM (inactive)	> 100 µM (inactive)	> 100 µM (inactive)
